Where no end group is shown, it is not given here. The star is where a group is joined. Biotin = O=C1N[C@H]2[C@H](CS[C@H]2CCCCC(=O)*)N1

Data on five molecules can be found in publication PMC4279419, “Angiostatic, tumor inflammatory and anti-tumor effects of CXCL4^47–70 and CXCL4L1^47–70 in an EGF-dependent breast cancer model” (Oncotarget, 2014).

Assay [1] deals with CXCR3A. Briefly: Calcium signaling in CXCR3A-transfectants. It is filed as cell-based. The note with it: CXCL10 5 ng/ml after prestimulation with buffer; CHO/CXCR3A; fura 2. An excerpt: We further tried to reveal the mode of action of CXCL4^47–70 and CXCL4L1^47–70. First, we excluded that either peptide still binds/activates one of the CXCR3 isoforms, the receptors for intact CXCL4 and CXCL4L1. […]
inhibit signaling by intact CXCL10. To study interaction of CXCL447–70 and CXCL4L147–70 with CXCR3A, CHO cells stably transfected with CXCR3A were loaded with the fluorescent dye fura 2 (Struyf et al. J. Immunol. 2009, 182:666). Changes in the intracellular Ca2+ concentrations ([Ca2+]i) in response to CXCL447–70 or CXCL4L147–70 treatment were monitored using a spectrofluorometer. The line in the spectra indicates the fluorescence intensity ratio (i.e. the fluorescence intensity measured after excitation at 340 nm divided by the fluorescence intensity measured after excitation at 380 nm). The results shown (one representative experiment out of three) illustrate a desensitization experiment, in which CHO/CXCR3A cells were stimulated first with a peptide (2 µg/ml) and 100 s later with intact CXCL10 […]
peptides induced a rise in [Ca2+]i. When the cells were stimulated with 5 ng/ml intact CXCL10 100 s after peptide treatment, the response […]
interact with CXCR3A. Arrows indicate the time of addition of the stimulus.
(also on this page, place not known: www.impactjournals.com/oncotarget/ Oncotarget, Supplementary Materials 2014 CXCL4 47–70 CXCL4L1 47–70 CXCL4 47–70 CXCL4L1 47–70 CXCL4 47–70) […]

The test system of assay [2] is human retinal microvascular endothelial cells (HMVEC). Briefly: HMVEC MTT proliferation assay. The note with it: EGF 3 ng/ml; control medium PI=1; 3 to 4 days; MTT OD570–630; mean ± s.e.m., n=7. It is filed as cell-based. How it is done: (§1) First, HMVEC and HLEC were seeded at 5 × 10^3 cells/well in EBM-2 + 1% FCS in a 96-well plate, whereas MDA-MB-231 were starved of growth factors overnight by replacing their growth medium with DMEM (serum-free) prior to seeding the tumor cells at 15 × 10^2 cells/well in DMEM + 1% FCS. As for the rest of the assay, the same protocol applies to all cells. Once adherent, cells were incubated with different concentrations of the peptides CXCL4^47–70 and CXCL4L1^47–70 as single stimuli or in combination with recombinant human EGF (3 ng/ml; R&D Systems, Minneapolis, MN) at 37°C/5% CO2. All conditions were tested in triplicate or quadruplicate. After 3 to 4 days, stimulation medium was removed and a sterile MTT solution was added [0.04 g/100 ml thiazolyl blue (Sigma-Aldrich, St. Louis, MO) in 20% PBS/80% RPMI without phenol red (Lonza)] for 3 to 4 hours. The formed formasan crystals were dissolved by replacing the MTT solution with acidic propanol (0.04 M HCl, 0.1% (v/v) Nondet P-40 in absolute isopropanol) and shaking the plate, shielded from light, for 10 minutes. Optical density (OD) was determined at 570 nm and 630 nm. The obtained ODs were processed to proliferation indexes (PI), expressed relative to appropriate buffer controls, i.e. ΔOD570–630X over ΔOD570–630CO.

Assay [3] concerns p21 in HMVEC. The assay is described as follows: Intracellular p21 content in HMVEC (ELISA). It is filed as cell-based, human. The note with it: EGF 20 ng/ml; 15 h; p21:total protein; mean ± s.e.m., n=9; p<0.001 versus control. The procedure:
Signaling assays were slightly adapted to the signaling molecules of interest in this study. HMVEC were stimulated with EGF (20 ng/ml) as a single stimulus or in combination with the peptides CXCL4^47–70 and CXCL4L1^47–70 (0.3 to 10 μg/ml) in order to evaluate their impact on the cell cycle-arresting p21. After 15 hours, the cells were washed three times with ice-cold PBS to stop the stimulation and lysis buffer [1 mM EDTA, 0.5% (v/v) Triton-X, 10 mM NaF, 150 mM NaCl, 1 mM DTT in PBS; pH 7.2–7.4] supplemented with a protease inhibitor cocktail (Sigma) was added. Cell residue was removed from the collected lysates by centrifugation (4°C, 10 min, 1666g). Lastly, the intracellular p21 content was determined by DuoSet® IC ELISA (cat n° DYC1047, R&D Systems) while, in parallel, total protein content was measured in a bicinchoninic acid (BCA) protein assay (Pierce, Rockford, IL).

The test system of assay [4] is human dermal lymphatic microvascular endothelial cells (HLEC). The assay is described as follows: HLEC MTT proliferation assay. It is filed as cell-based. To be noted: data not shown. How it is done:
as §1

For assay [5], the system named is endothelial cell. To be noted: compared with CXCL4; cited from earlier work. An excerpt:
Angiogenesis, the formation of an ever more branching network of blood vessels from a pre-existing vascular network, has been established as a requisite for successful tumor growth and cancer progression. Anti-angiogenic therapy thus offers a promising approach to tackle one of the leading causes of mortality worldwide. However, classic anti-angiogenic therapeutics have encountered important hurdles and interest in less obvious targets, including inflammatory mediators such as the chemokines, increases. These chemotactic cytokines play an important role in immunity as they ...

The test system of assay [6] is p21. The note with it: EGF-stimulated endothelial cells; cited from earlier work. An excerpt:
Previously, the EGF-induced reduction of the cyclin-dependent kinase inhibitor p21 was described. […] Therefore, we studied the effects of chemokine-derived peptides on p21 levels and, with it, their ability to arrest the cell cycle. Evaluation of the p21 content in HMVEC did confirm CXCL4^47–70 and CXCL4L1^47–70 to counteract the tendency of EGF to reduce p21 (Figure 2). […] Ad ...

For assay [7], the system named is monocyte. To be noted: through heteromultimerization with CCL5; cited from earlier work. An excerpt: Concerning direct cytokine ligand interactions, both positive and negative interactions have been described for intact CXCL4 [33, 34, 37, 38] and its carboxy-terminal peptide. […] In this study we chose two cytokines important in our breast cancer model and verified interaction with CXCL4^47–70 and CXCL4L1^47–70: EGF as g ...

Assay [8] deals with T1, recombinant human CCL5 (human, UniProt P13501 24-91).
T1 construct: CCL5, human, recombinant protein; source: bought: PeproTech
T1 sequence (looked up): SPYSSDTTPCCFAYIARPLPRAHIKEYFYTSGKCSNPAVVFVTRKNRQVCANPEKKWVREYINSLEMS
The assay is described as follows: ELISA; 50 ng/ml CCL5 in PBS coated overnight at room temperature on high protein-binding ELISA plates, blocked with 0.1% casein; dilution curve of biotinylated peptide at 37 °C; detected with peroxidase-conjugated streptavidin, OD450. To be noted: both partners purified.

Regarding “CXCL10: intact CXCL10, CXCR3 ligand [reference compound]”, in assay [1], the “calcium response to CXCL10” value is “significant increase in [Ca2+]i”.

For the molecule “EGF: recombinant human EGF (R&D Systems) [reference compound]”, the “Proliferation index (PI), EGF alone” value in assay [2] is reported as 1.42 ± 0.08. The “intracellular p21 relative to control (100%), EGF alone” value in assay [3] turned out to be 75.82 ± 3.69%. Besides, the “HLEC proliferation response to EGF” value in assay [4] is on record as “not responsive to EGF-stimulation”.

B1: CXCL4L1: recombinant human CXCL4L1 isolated from baculovirus-infected Sf9 cells (protein, UniProt P10720 31-104, looked up)
Platelet factor 4 variant: FARAEAEEDGDLQCLCVKTTSQVRPRHITSLEVIKAGPHCPTAQLIATLKNGRKICLDLQALLYKKIIKEHLES
For B1, in assay [5], the “inhibition of CXCL8- and FGF2-induced endothelial cell chemotaxis” value is “more efficiently than CXCL4”.

B2: CXCL4: natural human CXCL4 isolated from stimulated platelets; 70 amino acid-long mature protein (protein, UniProt P02776 32-101, looked up)
Platelet factor 4: EAEEDGDLQCLCVKTTSQVRPRHITSLEVIKAGPHCPTAQLIATLKNGRKICLDLQAPLYKKIIKKLLES
On to B2, for which, in assay [6], the “effect on EGF-induced p21 downregulation” value is “appeared to interfere with this p21 downregulation”. Moreover, in assay [7], the “effect on CCL5 monocyte chemotactic activity” value is given as “enhances monocyte chemotactic activity of CCL5”.

B3: NH2-terminally biotinylated CXCL4^47–70 peptide (peptide, UniProt P02776 78-101, looked up)
peptide: Biotin-NGRKICLDLQAPLYKKIIKKLLES
notes: CXCL4/Platelet factor-4 (PF-4), human, last 24 amino acids (residues 47-70) of the 70 amino acid-long mature protein; has Pro58, Lys66, Leu67; numbers count on: the mature protein; The functional assays (chemotaxis, calcium) used the peptide without mention of biotin; also called carboxy-terminal peptide of CXCL4/Platelet factor-4 (PF-4); source: synthetic peptide (Fmoc chemistry, purified by …)
For B3, the binding result in assay [8] is “binds”.
